# Test results published in PubChem BioAssay (NCI).
#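 Briefly, cells in 96-well plates were exposed to five compound concentrations for 48 h, and endpoints were estimated by linear interpolation. GI50 = concentration required for 50% inhibition of growth. TGI: total growth inhibition.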 Where a SMILES comes first, the peptide text is derived from it. [ ]: non-standard residue; d: D form. The star is where a group is joined. Cbz = O=C(OCc1ccccc1)*; Aib = CC(C)(N)C(=O)O
# What was measured:
# Assay in all cases: NCI anticancer screen, dose series, 48 h
# [1] = system: LOX IMVI melanoma
# [2] = system: UO-31 renal
# [3] = system: SF-539 CNS
# [4] = system: T-47D breast
# [5] = system: COLO 205 colon
# [6] = system: UACC-62 melanoma
# [7] = system: DU-145 prostate
# [8] = system: EKVX NSCLC
# [9] = system: HOP-92 NSCLC
# [10] = system: HL-60(TB) leukemia
SMILES,TGI [1] [µM],TGI [2] [µM],TGI [3] [µM],TGI [4] [µM],TGI [5] [µM],TGI [6] [µM],TGI [7] [µM],TGI [8] [µM],TGI [9] [µM],TGI [10] [µM],GI50 [4] [µM],GI50 [7] [µM]
COC(=O)C(CNC(=O)/C=C/c1ccc(OC(C)=O)c(OC(C)=O)c1)NC(=O)/C=C/c1ccc(OC(C)=O)c(OC(C)=O)c1 (stereo unspecified),> 100,> 100,> 100,> 100,> 100,> 100,> 100,> 100,> 100,,,
c1ccc(OCc2nnc(CCCCCCCCc3nnc(COc4ccccc4)o3)o2)cc1,> 100,> 100,> 100,,> 100,,> 100,> 100,> 100,> 100,,
O=c1[nH]c2ccc(C(F)(F)F)cc2nc1C(F)(F)F,60.8,75.6,64.2,45.9,39.8,> 100,> 100,> 100,30.2,,,
CN1C/C(=C\c2cccs2)C(=O)/C(=C/c2cccs2)C1,41,45,,92.6,91.7,> 100,> 100,75.8,67.3,,,
CC1=C(C(=O)NCc2ccccc2)C(c2ccco2)C(C(=O)NCc2ccccc2)=C(C)N1,> 100,> 100,> 100,,> 100,50.6,,> 100,> 100,> 100,,
Cc1cc(O)c(C(C)C)cc1C(=S)Nc1ccc(Cl)cc1,24,,29.6,29.2,31.5,22.3,31.5,25.3,,24.9,,
O=[N+]([O-])c1ccc(Nc2cccc3c2[nH]c2c(-c4ccccc4)nccc23)c([N+](=O)[O-])c1,> 100,> 100,> 100,,> 100,> 100,,> 100,> 100,> 100,,
CSc1c(C)n([O-])c2cc(Cl)c(Cl)cc2[n+]1=O,41.3,30.4,> 100,50,41.7,28.9,30.9,31,30.3,,,
O=C1c2cc3ncsc3cc2C(=O)c2c(O)ccc(O)c21,> 100,> 100,> 100,,> 100,> 100,> 100,> 100,> 100,,,
COc1ccc(C2NC(N)=C(C#N)C3=C2C(C)CCC3)cc1OC (stereo unspecified),> 100,> 100,> 100,> 100,> 100,> 100,> 100,> 100,,> 100,,
Cc1ccc2c(=O)cc(-c3cccc(F)c3)[nH]c2n1,> 100,,0.78,,0.0567,> 100,1.23,> 100,> 100,0.0621,,
NC(=S)NS(=O)(=O)c1ccc(Cl)cc1,> 100,,> 100,> 100,> 100,> 100,> 100,> 100,,> 100,,
CC(C)(NC(=O)C(C)(C)NC(=O)OCc1ccccc1)C(=O)O (Cbz-[Aib]-[Aib]-OH),> 100,> 100,> 100,> 100,,> 100,> 100,> 100,> 100,,,
Cc1cc(OCC(O)CO)ccc1Cl (stereo unspecified),> 100,> 100,> 100,,> 100,> 100,,> 100,> 100,> 100,,
Cc1ccc(S(=O)(=O)NC(=O)NC(CC(=O)O)C(=O)O)cc1 (stereo unspecified),> 100,> 100,> 100,> 100,> 100,> 100,> 100,,> 100,> 100,,
CCCCCCCCCCOc1ccc(N=Nc2nnc(-c3ccc(OCCCCC)cc3)s2)cc1,> 100,,> 100,> 100,> 100,> 100,> 100,> 100,> 100,,,
CCCCOc1ccc(S(=O)(=O)/N=C(\NO)Nc2ccc(Cl)cc2)cc1,31,24.6,37,26.2,35.7,28.8,30.1,29.5,19.3,,,
CC(=O)c1c(O)cc(O)c(-c2c(C)cc(O)c3c2C(=O)c2cccc(O)c2C3=O)c1O,27.4,27.9,30.3,22.7,,29.1,30.2,31.9,26.1,79.7,,
CCN(CCC#N)C(=O)Nc1ccccc1,> 100,> 100,> 100,> 100,> 100,> 100,> 100,> 100,> 100,,,
CC(C)(C)CC(C)(C)NCC(O)COc1ccc(C(C)(C)c2ccc(OCC(O)CNC(C)(C)CC(C)(C)C)cc2)cc1 (stereo unspecified),1.35,2.98,3.33,3.48,1.47,3.31,2.75,3.08,3,,1.66,1.39
COc1ccc(C2=NN(c3nsc4ccccc34)C(=O)CC2)cc1,> 100,> 100,> 100,,> 100,> 100,,> 100,> 100,> 100,,
CC1=NN(c2nc(N)nc(-c3cc4ccccc4oc3=N)n2)C(C)(C)C1,,37.4,34.1,34.3,31.1,34.1,53.7,32.8,42.7,46.2,,
COc1cccc(N(CN2C(=O)CCC2OC)C(C)=O)c1 (stereo unspecified),> 100,> 100,> 100,> 100,> 100,> 100,> 100,,> 100,49.2,,
O=C(O)c1cccc(S(=O)(=O)NN2C(=O)CSC2c2c(O)ccc3ccccc23)c1 (stereo unspecified),60,> 100,55.8,80.5,> 100,66.4,> 100,> 100,,59.8,,
